# According to US20250170117A1, “MODULATORS OF ACKR3 AND USES THEREOF” (InterAx Biotech AG, priority 2022, published 2025):
# Structures can show the parent of a compound that is named as a salt.
# What was measured:
# [1] = target: T1, NanoLuc-hACKR3 (Homo sapiens, UniProt P25106); assay: NanoBRET binding study (displacement of fluorescently labelled CXCL12); settings: displacement of 0.3 nM CXCL12-AF647; membranes of HEK293T cells expressing NanoLuc-ACKR3; 1 hour incubation; read-out: Affinity
# T1 construct: expressed in transfected cells; host or cells: HEK293T (transient, PEI; membrane preparation)
# T1 sequence (P25106 whole entry): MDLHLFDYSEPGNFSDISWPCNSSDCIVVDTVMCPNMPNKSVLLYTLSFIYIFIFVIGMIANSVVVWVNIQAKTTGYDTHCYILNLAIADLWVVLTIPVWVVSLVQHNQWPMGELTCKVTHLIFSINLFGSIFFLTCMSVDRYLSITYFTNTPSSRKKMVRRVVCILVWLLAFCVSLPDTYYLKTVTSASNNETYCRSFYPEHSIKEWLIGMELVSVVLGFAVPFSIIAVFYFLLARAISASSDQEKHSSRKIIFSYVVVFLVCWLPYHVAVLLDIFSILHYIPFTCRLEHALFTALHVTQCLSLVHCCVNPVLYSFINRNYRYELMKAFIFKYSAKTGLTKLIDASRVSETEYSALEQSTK
# Protocol: Membranes of HEK293T cells that transiently express the NanoLuc-hACKR3 were produced. 2 million HEK293T cells were seeded per […] dish and were transfected the next day using a DNA/PEI-mix containing 0.25 μg plasmid DNA encoding for the ACKR3, 4.75 μg pcDEF3 plasmid DNA and 30 μg linear PEI. Two days after transfection, cells were collected in PBS and pelleted by centrifugation. Cell pellets were resuspended in ice-cold membrane buffer (15 mM Tris, 0.3 mM EDTA, 2 mM MgCl2, pH 7.4 at 4° C.) and were dounce-homogenized on ice by plunging the pestle […] with 1500 rpm. Cell homogenates were subsequently subjected to two freeze-thaw cycles using liquid nitrogen. Next, the cell homogenates were centrifuged at 40,000 g and pellets were resuspended in Tris-sucrose buffer (20 mM Tris, 250 mM Sucrose, pH 7.4 at 4° C.). Finally, the membrane samples were homogenized using a 23-gauge needle, snap-frozen with liquid nitrogen and stored until further experimentation at −80° C.
# Binding reactions were measured in triplicate on white low-volume 384-well plates and started by combining 0.3 nM fluorescently labelled CXCL12 (CXCL12 labelled with a AF647® dye in a molar ratio of dye:peptide of 1:1, purchased from ALMAC, h-SDF-1α (AF647®), cat. No. CAF-11, Sequence:
# […](Ale xa647®)ALN), increasing concentrations of test compound (10^−5 M-10^−11 M) with 35 ng membranes (protein content) per well of HEK293T cells expressing the NanoLuc-ACKR3. All dilutions were prepared in HBSS supplemented with 0.2% BSA. After assembling the binding reaction, the plate was flash-centrifuged at 500 g. Binding reactions were then incubated for 1 hour after which NanoGlo substrate was added (310 times diluted from stock concentration) to a final volume of 13.5 μL. The reaction plate was again pulse-centrifuged to 500 g and the total light intensity was measured for 460 nm wavelength with 80 nm bandwidth and separately for wavelengths ≥610 nm using the PHERAstar-FSX (BMG Labtech, Ortenberg, Germany) with a dual emission filter. The ratio of light intensities (>610 nm over 460 nm) is a measure for the relative binding of CXCL12-A647 to the NanoLuc-ACKR3. The pharmacological data are presented in Appendix 1.
# [2] = Single-dose pharmacokinetics study in mice; format: in vivo; settings: male CD1 mice, IP, 30 mg/kg; for pharmacokinetic profiles (half-lives) compared with reference compound: versus ACT-1004-1239; for half-life: mouse, blood, LC-MS/MS, read-out: PK half-life
# Protocol: Male CD1 mice were administered IP with compound dissolved in vehicle (10% HP-β-CD in 100 mM Citrate buffer, pH 7) at a dose of 30 mg/kg and mice were sacrificed at different time points (n=3 per time point) following compound administration. Blood samples were harvested at different time points and compound concentration was determined by LC-MS/MS.
# [3] = In vitro microsomal stability assay (metabolic stability); format: in vitro ADME, mouse; settings: for half-life at 10 μM: mouse liver microsomes (male CD-1), NADPH regenerative system, 10 μM compound, 15, 30 or 60 minutes; for metabolic stability compared with reference compound: mouse liver microsomes, versus ACT-1004-1239
# Protocol: Mouse liver microsomes (from S9 liver fraction from male CD-1 mice) are co-incubated with an NADPH regenerative system (1.3 mM NADP+, 3.3. mM glucose-6-phoase, 3.3 mM MgCl2 and 0.4 units/ml glucose-6-phosphate-dehydrogenase) and 10 μM compound for 15, 30 or 60 minutes. Reaction was terminated by centrifugation at max speed and samples were analyzed by LC-MS.
# [4] = test system: CXCL12; assay: Target engagement study in mice (blood CXCL12 by ELISA); format: in vivo; settings: male CD1 mice, IP, 30 mg/kg; for target engagement compared with reference compound: 16 h, versus ACT-1004-1239
# Protocol: Male CD1 mice were administered IP with compound dissolved in vehicle (10% HP-β-CD in 100 mM Citrate buffer, pH 7) at a dose of 30 mg/kg and mice were sacrificed 16 h (n=3 per time point) following compound administration. Blood samples were harvested and CXCL12 concentration was determined by CXCL12 ELISA kit.
Structure (SMILES),Ki [1],pharmacokinetic profiles (half-lives) compared with reference compound [2],half-life [2],half-life at 10 μM [3],metabolic stability compared with reference compound [3],target engagement compared with reference compound [4],"Target engagement (CXCL12 fold-increase) ([4]; blood 16 h after administration, CXCL12 ELISA)"
"O=C(NCC1CCN(C2CCCCC2)CC1)c1cc(-c2ccc(F)cc2F)on1 [Molecule 1, N-[(1-cyclohexylpiperidin-4-yl)methyl]-5-(2,4-difluorophenyl)-1,2-oxazole-3-carboxamide HCl]",≤ 100 nM,better than the reference compound,2 to 4 h,> 10 h,comparable or better than the reference compound,comparable or better than the reference compound,–
"O=C(NCC1CCN(Cc2ccc(N3CCCC3)cc2)CC1)c1cc(-c2ccc(F)cc2F)on1 [Molecule 44, 5-(2,4-difluorophenyl)-N-((1-(4-(pyrrolidin-1-yl)benzyl)piperidin-4-yl)methyl)isoxazole-3-carboxamide]",≤ 100 nM,better than the reference compound,> 4 h,2 to 4 h,comparable or better than the reference compound,comparable or better than the reference compound,++ (>3 = ++)
